According to ChEMBL document CHEMBL1132542, “Vasorelaxation by new hybrid compounds containing dihydropyridine and pinacidil-like moieties” (J Med Chem, 1999):

How the values were obtained:
[1] = Inhibition of [3H]P1075 binding to ATP-sensitive potassium channels of rat cardiac membranes; assay type: cell membranes, Membrane
[2] = biological target: T1, Voltage-dependent L-type calcium channel subunit alpha-1C (Homo sapiens, UniProt Q13936); test: Inhibition of VGCC alpha-1C-b expressed in CHO cells -30 mV holding potential, peak Ba2+ current, at 10e-6 M; assay type: functional, cell-based
T1 sequence (Q13936 whole entry): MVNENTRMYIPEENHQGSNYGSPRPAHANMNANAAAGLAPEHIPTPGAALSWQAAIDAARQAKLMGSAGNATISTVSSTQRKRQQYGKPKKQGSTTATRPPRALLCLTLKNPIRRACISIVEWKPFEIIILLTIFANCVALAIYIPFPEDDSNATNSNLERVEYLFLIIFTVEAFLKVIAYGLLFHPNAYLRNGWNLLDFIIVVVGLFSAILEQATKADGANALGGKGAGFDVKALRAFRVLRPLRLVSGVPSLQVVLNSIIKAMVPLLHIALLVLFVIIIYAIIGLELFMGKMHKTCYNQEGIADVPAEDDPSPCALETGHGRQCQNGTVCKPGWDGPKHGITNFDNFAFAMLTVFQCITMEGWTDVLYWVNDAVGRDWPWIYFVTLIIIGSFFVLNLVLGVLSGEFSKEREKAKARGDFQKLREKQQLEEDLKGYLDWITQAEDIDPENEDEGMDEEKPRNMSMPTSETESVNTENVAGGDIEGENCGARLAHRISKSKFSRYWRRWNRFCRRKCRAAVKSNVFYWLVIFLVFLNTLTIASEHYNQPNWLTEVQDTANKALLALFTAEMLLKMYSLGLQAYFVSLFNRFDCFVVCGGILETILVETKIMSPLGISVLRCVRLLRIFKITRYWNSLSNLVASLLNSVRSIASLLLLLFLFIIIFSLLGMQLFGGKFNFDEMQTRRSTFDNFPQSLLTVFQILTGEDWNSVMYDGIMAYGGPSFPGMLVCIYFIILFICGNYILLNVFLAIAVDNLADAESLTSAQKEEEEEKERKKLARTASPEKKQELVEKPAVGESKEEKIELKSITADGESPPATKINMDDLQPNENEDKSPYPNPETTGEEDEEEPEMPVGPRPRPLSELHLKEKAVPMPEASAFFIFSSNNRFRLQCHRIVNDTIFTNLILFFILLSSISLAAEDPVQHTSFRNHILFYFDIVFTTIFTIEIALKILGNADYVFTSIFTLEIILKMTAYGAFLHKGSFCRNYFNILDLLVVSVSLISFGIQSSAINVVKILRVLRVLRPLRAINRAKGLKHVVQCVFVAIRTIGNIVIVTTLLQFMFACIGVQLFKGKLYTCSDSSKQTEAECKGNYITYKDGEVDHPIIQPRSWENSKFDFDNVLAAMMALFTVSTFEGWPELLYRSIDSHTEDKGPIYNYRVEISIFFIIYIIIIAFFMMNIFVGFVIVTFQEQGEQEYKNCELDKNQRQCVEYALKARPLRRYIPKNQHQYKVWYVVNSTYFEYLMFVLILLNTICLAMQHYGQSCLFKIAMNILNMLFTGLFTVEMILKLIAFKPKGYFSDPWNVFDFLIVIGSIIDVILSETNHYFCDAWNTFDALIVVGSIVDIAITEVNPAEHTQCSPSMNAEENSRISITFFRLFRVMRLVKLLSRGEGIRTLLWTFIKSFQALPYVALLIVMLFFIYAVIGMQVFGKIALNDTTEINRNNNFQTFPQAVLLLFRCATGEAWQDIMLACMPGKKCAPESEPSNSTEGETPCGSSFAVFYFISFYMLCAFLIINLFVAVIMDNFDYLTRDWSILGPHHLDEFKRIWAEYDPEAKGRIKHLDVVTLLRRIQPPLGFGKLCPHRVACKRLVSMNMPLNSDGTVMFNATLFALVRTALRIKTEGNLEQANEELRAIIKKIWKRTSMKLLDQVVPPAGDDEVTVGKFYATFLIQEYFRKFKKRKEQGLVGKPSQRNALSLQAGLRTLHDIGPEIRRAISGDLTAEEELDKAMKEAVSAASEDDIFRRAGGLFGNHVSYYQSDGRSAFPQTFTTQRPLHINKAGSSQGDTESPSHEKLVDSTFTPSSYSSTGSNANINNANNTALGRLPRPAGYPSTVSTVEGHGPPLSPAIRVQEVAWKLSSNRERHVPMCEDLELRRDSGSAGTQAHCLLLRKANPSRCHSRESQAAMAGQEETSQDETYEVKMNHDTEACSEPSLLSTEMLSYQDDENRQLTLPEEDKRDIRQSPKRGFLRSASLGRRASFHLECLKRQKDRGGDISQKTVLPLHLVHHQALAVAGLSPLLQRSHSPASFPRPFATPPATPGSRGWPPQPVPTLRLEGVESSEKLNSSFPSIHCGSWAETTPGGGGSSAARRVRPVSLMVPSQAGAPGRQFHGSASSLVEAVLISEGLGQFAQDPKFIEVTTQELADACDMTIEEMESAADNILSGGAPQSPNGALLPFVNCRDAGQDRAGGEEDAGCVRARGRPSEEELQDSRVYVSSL

[3] = biological target: T1, Voltage-dependent L-type calcium channel subunit alpha-1C; test: Inhibition of VGCC alpha-1C-b expressed in CHO cells -30 mV holding potential, peak Ba2+ current, at 10e-5 M; assay type: functional, cell-based
[4] = biological target: T1, Voltage-dependent L-type calcium channel subunit alpha-1C; test: Inhibition of VGCC alpha-1C-b expressed in CHO cells -80 mV holding potential, peak Ba2+ current, at 10e-6 M; assay type: functional, cell-based
Rattus norvegicus [5] = organism: Rattus norvegicus; test: Vasorelaxation activity in rat mesenteric arteries after contractile stimulus(K+ depolarization)
[6] = Vasorelaxation in rat mesenteric arteries after contractile stimulus (norepinephrine+glibenclamide); assay type: functional
Rattus norvegicus [7] = organism: Rattus norvegicus; test: Vasorelaxation activity in rat mesenteric arteries after contractile stimulus (norepinephrine)
[8] = biological target: T1, Voltage-dependent L-type calcium channel subunit alpha-1C; test: Inhibition of VGCC alpha-1C-b expressed in CHO cells -80 mV holding potential, peak Ba2+ current, at 10e-5 M; assay type: functional, cell-based; conditions: hamster
Rattus norvegicus [9] = organism: Rattus norvegicus; test: Vasorelaxation activity in rat mesenteric arteries after contractile stimulus(K+ depolarization).
[10] = biological target: T1, Voltage-dependent L-type calcium channel subunit alpha-1C; test: Inhibition of VGCC alpha-1C-b expressed in CHO cells -30 mV holding potential, peak Ba2+ current, at 10e-4 M; assay type: functional, cell-based
[11] = biological target: T1, Voltage-dependent L-type calcium channel subunit alpha-1C; test: Inhibition of VGCC alpha-1C-b expressed in CHO cells -80 mV holding potential, peak Ba2+ current, at 10e-4 M; assay type: functional, cell-based

pIC50 [1]	Peak current [2] [%]	Peak current [3] [%]	Peak current [4] [%]	EC50 (Rattus norvegicus [5]) [nM]	Log EC50 [6]	EC50 (Rattus norvegicus [7]) [nM]	Peak current [8] [%]	EC50 (Rattus norvegicus [9]) [nM]	Peak current [10] [%]	Peak current [11] [%]	Structure (SMILES)
6.2	9.2	2.5	60.4	372	-6.2	200	38.2	–	–	–	COC(=O)C1=C(C)N=C(C)/C(=C(/O)OC)C1c1cc(N/C(=N/C(C)C(C)(C)C)NC#N)ccc1OC(F)F (stereo not drawn)
–	–	–	–	955	–	–	–	–	–	–	CCOC(=O)C1=C(C)N=C(C)/C(=C(/O)OCC)C1c1cc(N/C(=N/C(C)C(C)(C)C)NC#N)ccc1OC(F)F (stereo not drawn)
–	–	–	–	–	–	–	–	2340	–	–	CO/C(O)=C1\C(C)=NC(C)=C(C#N)C1c1cc(N/C(=N/C(C)C(C)(C)C)NC#N)ccc1OC(F)F (stereo not drawn)
8.7	–	10.8	–	7410	-6.12	288	58.2	–	2.4	26.7	CC(/N=C(\NC#N)Nc1ccc(OC(F)F)cc1)C(C)(C)C (stereo not drawn)
